Measurements published in patent US20240299562A1 (priority 2020, published 2024).
Like-named read-outs stand apart in the source and are kept apart here. Values belong to the compound of their own block, whether it stands above or below them. *1 amine or outer side, *2 acyl side, *3 side chain or, on linkers, in order; H or OH if unused. Where a SMILES comes first, the peptide text is derived from it. [ ]: non-standard residue; d: D form. The star is where a group is joined. X1 = CO[C@@H](C1CCCN1[*:1])[C@@H](C)C(=O)[*:2]; Dil = CC[C@H](C)[C@H](NC)[C@@H](CC(=O)O)OC; PABC = O=C(OCc1ccc(N[*:1])cc1)[*:2]; Phosphonoacetyl = O=C(CP(=O)(O)O)*; X2 = C[C@@H](N*)[C@@H](O)c1ccccc1; NMeV = CN[C@H](C(=O)O)C(C)C

Experiments:
[1] = system: U-87 MG cells; assay: WST-1 cell viability, U-87 MG glioblastoma cells; assay type: cell-based; conditions: for IC50: read-out: Absolute IC50
Procedure: (§1) All commercial cell lines were purchased at ATCC (LGC Standards SARL, France). Cells were seeded in 96-well plates according to their optimal seeding density, varying between 5.000 and 10.000 cells/well. After attachment overnight, 10-point serial titrations (1:5) were prepared in their equivalent complete media as recommended by ATCC, starting from the 10 mM stock solutions. For doxorubicin comprising prodrugs dilutions started from 100 μM, while for the parent compound doxorubicin dilutions started at 10 μM. […] Seventy-two hours later, compounds were removed together with the supernatants and cells were washed once with PBS to remove excess drugs.
(§2) The WST-1 assay for cell proliferation and viability (Roche, Switzerland) was performed according to manufacturer's protocol. Absorbances were measured at 4 hrs using a Perkin Elmer Ensight multiplate reader, equipped with Kaleido 2.0 software (Perkin Elmer, USA). Cell viability was expressed as a percentage compared to non-treated cells. Absolute IC50 values were extrapolated from a non-linear fitting following the Sigmoidal-4PL regression method using Graphpad Prism 7.0. Likewise, maximal efficacy was determined as 100% minus the cell viability determined when cells are incubated in the presence of a compound. For instance, if 20% of the cells survive incubation in the presence of a compound, then the maximal efficacy of that compound is 100%-20%=80%.
(§3) Selectivity indices (SI) were defined as the ratio of the concentration of drug required to kill 50% of the cells in normal (control, non-cancer) cells, divided by the concentration required to exert the same efficacy in tumor cells: SI=IC50 (control cell)/IC50 (cancer cell), or SI=^HME-1IC50/cancer IC50.

[2] = system: A2058 cells; assay: WST-1 cell viability, A2058 melanoma cells; assay type: cell-based; conditions: for IC50: read-out: Absolute IC50
Procedure: as §1, §2, §3

[3] = system: MDA-MB-231 cells; assay: WST-1 cell viability, MDA-MB-231 triple negative breast cancer cells; assay type: cell-based; conditions: for IC50: read-out: Absolute IC50
Procedure: as §1, §2, §3

[4] = system: A-172 cells; assay: WST-1 cell viability, A-172 glioblastoma cells; assay type: cell-based; conditions: for IC50: read-out: Absolute IC50
Procedure: as §1, §2, §3

[5] = system: HME-1 cells; assay: WST-1 cell viability, normal HME-1 cells; assay type: cell-based, human; conditions: for IC50: read-out: Absolute IC50
Procedure: as §1, §2, §3

[6] = system: Human umbilical vein endothelial cells (HUVEC); assay: WST-1 cell viability, normal HUVEC cells; assay type: cell-based; conditions: 72 hrs
Procedure: as §1, §2, §3

[7] = system: NCI-1299 cells; assay: WST-1 cell viability, NCI-H1299 lung cancer cells; assay type: cell-based
Procedure: as §1, §2, §3

[8] = system: A2780 cells; assay: WST-1 cell viability, A2780 ovarian cancer cells; assay type: cell-based
Procedure: as §1, §2, §3

[9] = system: A2780 Cp cells; assay: WST-1 cell viability, A2780 CpR (cisplatin resistant) ovarian cancer cells; assay type: cell-based
Procedure: as §1, §2, §3

[10] = system: HCT-116 cells; assay: WST-1 cell viability, HCT-116 colorectal cancer cells; assay type: cell-based
Procedure: as §1, §2, §3

[11] = WST-1 cell viability, normal HME-1 cells; assay type: cell-based, human; conditions: human
Procedure: as §1, §2, §3

[12] = system: U87 MG glioblastoma cells subcutaneously implanted in nude NMRI mice; assay: In vivo activity of PhAc-ALLP-Dox on U87 MG glioblastoma xenograft; set-up: species or system mouse; conditions: 5 mg/kg iv, once per week
Procedure: The in vivo efficacy of PhAc-ALLP-Dox was tested in a mouse GBM model. U87 MG glioblastoma cells were subcutaneously (SC) implanted in nude NMRI mice. In total, 32 adult (9-10 weeks old) nude female NMRI mice (Janvier, France) were subjected to SC tumor cell grafting in the right flank. In total, 5×10^6 U87 MG cells resuspended in PBS plus Matrigel (1:1) were injected in 200 uL final volume. As soon as the tumors were palpable and reached the volume of 200 mm3 the treatment was started. At day zero, mice were randomly divided into 4 groups, based on the tumor volume, in order to have the following experimental sub-cohorts: • control group receiving the vehicle (PBS pH7.2) with a dose of 5 ml/kg, intravenously (iv), once per week (QW); • PhAc-ALLP-Dox (30 mg/kg iv, QW); • PhAc-ALGP-Dox (154 mg/kg iv, QW); • Dox (5 mg/kg iv, QW).
Treatments were performed once per week for a total of four tail vein administrations/injections (on days 1, 7, 14 and 21). One extra week of observation followed the active treatment phase. During the experiment, tumor volume was measured two times a week and was assessed three-dimensionally with a digital caliper (Mitutoyo, Illinois) using the following formula:
V=4/3π×[(d/2)^2×(D/2)], where d is the minor tumor axis and D is the major tumor axis.

[13] = system: DU145 cells; assay: WST-1 cell viability, DU145 prostate cancer cells; assay type: cell-based
Procedure: as §1, §2, §3

[14] = system: MIA PaCa-2 cells; assay: WST-1 cell viability, MIA PaCa-2 pancreatic cancer cells; assay type: cell-based
Procedure: as §1, §2, §3

SMILES: CC[C@H](C)[C@@H]([C@@H](CC(=O)N1CCCC1[C@H](OC)[C@@H](C)C(=O)N[C@H](C)[C@@H](O)c1ccccc1)OC)N(C)C(=O)[C@@H](NC(=O)[C@H](C(C)C)N(C)C(=O)OCc1ccc(NC(=O)[C@@H]2CCCN2C(=O)[C@H](CC(C)C)NC(=O)[C@H](CC(C)C)NC(=O)[C@H](C)NC(=O)CP(=O)(O)O)cc1)C(C)C (stereo partly drawn) [PhAc-ALLP-PABC-MMAE] (Phosphonoacetyl-ALLP[PABC][NMeV]V[Dil][X1]-X2)
- SI = HUVEC IC50 / cancer IC50 ([1]; U-87 MG (GBM), * towards HUVEC cells (Table 6)): *2.4
- SI = iAstro IC50 / cancer IC50 ([1]; U-87 MG (GBM), ** towards hiPSCs (iAstro) (Table 6)): **>500
- SI = normal IC50 / cancer IC50 ([1]; U-87 MG (GBM), selectivity towards HME-1 cells (Table 6)): 0.1
- IC50 ([1]; U-87 MG (GBM), 72 hrs, WST-1 (Table 4)): 70 nM
- Maximal efficacy ([1]; U-87 MG (GBM), 72 hrs, WST-1 (Table 5)): 86.6%
- SI = normal IC50 / cancer IC50 ([2]; A2058 (Melanoma), selectivity towards HME-1 cells (Table 6)): 0.3
- IC50 ([2]; A2058 (Melanoma), 72 hrs, WST-1 (Table 4)): 30 nM
- Maximal efficacy ([2]; A2058 (Melanoma), 72 hrs, WST-1 (Table 5)): 95.2%
- SI = normal IC50 / cancer IC50 ([3]; MDA-MB-231 (TNBC), selectivity towards HME-1 cells (Table 6)): 0.2
- IC50 ([3]; MDA-MB-231 (TNBC), 72 hrs, WST-1 (Table 4)): 40 nM
- Maximal efficacy ([3]; MDA-MB-231 (TNBC), 72 hrs, WST-1 (Table 5)): 77.6%
- SI = HUVEC IC50 / cancer IC50 ([4]; A-172 (GBM), * towards HUVEC cells (Table 6)): *1.9
- SI = iAstro IC50 / cancer IC50 ([4]; A-172 (GBM), ** towards hiPSCs (iAstro) (Table 6)): **>500
- SI = normal IC50 / cancer IC50 ([4]; A-172 (GBM), selectivity towards HME-1 cells (Table 6)): 0.1
- IC50 ([4]; A-172 (GBM), 72 hrs, WST-1 (Table 4)): 90 nM
- Maximal efficacy ([4]; A-172 (GBM), 72 hrs, WST-1 (Table 5)): 97.4%
- Selectivity index determined on HUVECs, GBM ([4]; GBM indication as a whole (A-172 and U-87 MG), vs HUVEC): 2.2
- Selectivity index towards hiPSC-derived astrocytes, GBM ([4]; GBM indication as a whole (A-172 and U-87 MG), vs iAstro): > 10
- Toxicity compared to MMAE on mammary epithelial (HME-1) cells ([5]; HME-1 normal cells): not significantly different
- IC50 ([5]; HME-1 normal cells, 72 hrs, WST-1 (Table 4)): 10 nM
- Maximal efficacy ([5]; HME-1 normal cells, 72 hrs, WST-1, cytotoxicity at highest concentration (Table 5)): 99.5%
- IC50 ([6]; WST-1 (Table 4), read-out: Absolute IC50): 170 nM
- Maximal efficacy ([6]; WST-1 (Table 5)): 98.1%

- IC50 ([1]; Homo sapiens, U-87 MG (GBM), 72 hrs, WST-1 (Table 1)): 70 nM
- SI = HME-1 IC50/cancer IC50 ([1]; U-87 MG (GBM) vs HME-1 (Table 3)): 0.59
- SI = HME-1 IC50/cancer IC50 ([2]; A2058 (Melanoma) vs HME-1 (Table 3)): 0.11
- IC50 ([2]; Homo sapiens, A2058 (Melanoma), 72 hrs, WST-1 (Table 1)): 410 nM
- IC50 ([3]; Homo sapiens, MDA-MB-231 (TNBC), 72 hrs, WST-1 (Table 1)): 120 nM
- SI = HME-1 IC50/cancer IC50 ([3]; MDA-MB-231 (TNBC) vs HME-1 (Table 3)): 0.38
- SI = HME-1 IC50/cancer IC50 ([4]; A-172 (GBM) vs HME-1 (Table 3)): 0.01
- IC50 ([4]; Homo sapiens, A-172 (GBM), 72 hrs, WST-1 (Table 1)): 3360 nM
- SI = HME-1 IC50/cancer IC50 ([8]; A2780 (OvC) vs HME-1 (Table 3)): 9.15
- IC50 ([8]; Homo sapiens, A2780 (OvC), 72 hrs, WST-1 (Table 1), read-out: Absolute IC50): < 10 nM
- IC50 ([9]; A2780C/P, A2780 Cp (OvC, cisplatin resistant), 72 hrs, WST-1 (Table 1), read-out: Absolute IC50): 80 nM
- SI = HME-1 IC50/cancer IC50 ([9]; A2780 Cp (OvC) vs HME-1 (Table 3)): 0.57
- SI = HME-1 IC50/cancer IC50 ([10]; HCT-116 (CrC) vs HME-1 (Table 3)): 0.36
- IC50 ([10]; Homo sapiens, HCT-116 (CrC), 72 hrs, WST-1 (Table 1), read-out: Absolute IC50): 120 nM
- SI = HME-1 IC50/cancer IC50 ([13]; DU145 (PrC) vs HME-1 (Table 3)): 1.55
- IC50 ([13]; Homo sapiens, DU-145, DU145 (PrC), 72 hrs, WST-1 (Table 1), read-out: Absolute IC50): 30 nM
- IC50 ([14]; Homo sapiens, MIA PaCa-2 (PaC), 72 hrs, WST-1 (Table 1), read-out: Absolute IC50): 100 nM
- SI = HME-1 IC50/cancer IC50 ([14]; MIA PaCa-2 (PaC) vs HME-1 (Table 3)): 0.44
SMILES: COc1cccc2c1C(=O)c1c(O)c3c(c(O)c1C2=O)C[C@@](O)(C(=O)CO)C[C@@H]3O[C@H]1C[C@H](N)[C@H](O)[C@H](C)O1 [Doxorubicin, reference compound]
- cytotoxicity at 100 µM ([1]; Homo sapiens, U-87 MG, 72 h, read-out: Maximal efficacy, cytotoxicity (%) at 100 μM): 71.8%
- cytotoxicity at 100 µM ([2]; Homo sapiens, A2058, 72 h, read-out: Maximal efficacy, cytotoxicity (%) at 100 μM): 97%
- cytotoxicity at 100 µM ([3]; Homo sapiens, MDA-MB-231, 72 h, read-out: Maximal efficacy, cytotoxicity (%) at 100 μM): 91.5%
- cytotoxicity at 100 µM ([4]; Homo sapiens, A 172, 72 h, read-out: Maximal efficacy, cytotoxicity (%) at 100 μM): 89.9%
- IC50 ([7]; Homo sapiens, NCI-H1299, NCI-1299 (NSCLC), 72 hrs, WST-1 (Table 1), read-out: Absolute IC50): 30 nM
- cytotoxicity at 100 µM ([7]; Homo sapiens, NCI-H1299, NCI-1299 (NSCLC), 72 hrs, WST-1 (Table 2), read-out: Maximal efficacy, cytotoxicity (%) at 100 μM): 92.9%
- SI = HME-1 IC50/cancer IC50 ([7]; NCI-1299 (NSCLC) vs HME-1 (Table 3)): 1.33
- cytotoxicity at 100 µM ([8]; Homo sapiens, A2780 (OvC), 72 hrs, WST-1 (Table 2), read-out: Maximal efficacy, cytotoxicity (%) at 100 μM): 96%
- cytotoxicity at 100 µM ([9]; A2780C/P, A2780 Cp (OvC), 72 hrs, WST-1 (Table 2), read-out: Maximal efficacy, cytotoxicity (%) at 100 μM): 94.8%
- cytotoxicity at 100 µM ([10]; Homo sapiens, HCT-116 (CrC), 72 hrs, WST-1 (Table 2), read-out: Maximal efficacy, cytotoxicity (%) at 100 μM): 93.5%
- cytotoxicity at 72 h, 100 µM [11]: 96.5%
- SI = HME-1 IC50/cancer IC50 ([5]; HME-1 normal cells against themselves (Table 3)): 1.00
- IC50 ([5]; Homo sapiens, HME1, HME-1 normal cells, 72 hrs continuous drug exposure, WST-1 (Table 1)): 40 nM
- Tumor growth [12]: significantly reduced tumor growth
- cytotoxicity at 100 µM ([13]; Homo sapiens, DU-145, DU145 (PrC), 72 hrs, WST-1 (Table 2), read-out: Maximal efficacy, cytotoxicity (%) at 100 μM): 92.5%
- cytotoxicity at 100 µM ([14]; Homo sapiens, MIA PaCa-2 (PaC), 72 hrs, WST-1 (Table 2), read-out: Maximal efficacy, cytotoxicity (%) at 100 μM): 94.4%
